US20070173545A1, “Activation of hypoxia-inducible gene expression” (priority 2003, published 2007)
Entries after “also recorded” stand apart in the source; their conditions may differ.

Legend:
HRE containing promoter [1] = test: HRE-GFP reporter in U373 cells; format: cell-based, human; details: eight hours, glucose-free medium
Source text: (§1) FIG. 18: 2-oxoacids activate HIF-mediated gene expression in human cell lines Effective gene expression by HIF not only involves HIF protein stabilization via inhibition of HPH enzymes but also HIF-1 binding to DNA, inhibition of FIH-1 activity, and gene transcription (see FIG. 1). (A) Glioma cells used in our studies express FIH-1 as assessed using RT-PCR. […] Expression of beta-actin, a housekeeping gene not under HIF regulation is not affected by pyruvate. […] (E) U373 cell were transfected with a green fluorescent protein (GFP) construct under the control of an HIF regulatory element (HRE) containing promoter and then cultured for eight hours in glucose-free medium under the indicated conditions. […] U251 cells stably transfected with a luciferase construct under the control of an HRE containing promoter were cultured for six hours in glucose free Krebs with the following conditions: 1=control, 2=1% oxygen, 3=pyruvate (2 mM), 4=OAA (2 mM), 5=Ethylpyruvate (2 mM), 6=Glucose (5.5 mM), 7=DMOG (0.5 mM), 8=Lactacystin-beta lactone ([…]).
Effective gene expression by HIF not only involves HIF protein stabilization via inhibition of HPH enzymes but also HIF-1 binding to DNA, inhibition of FIH-1 activity, and gene transcription. The human gliomas that we utilized for most of our studies all express mRNA for FIH-1 (FIG. 18A). […]

HIF-1a protein = test: HIF-1a levels in nuclear extracts of U87 glioma cells (western blot); format: cell-based, human; details: 150 μm DFO, four hours
Procedure: (A) U87 glioma cells cultured in DMEM were switched to Krebs buffer containing 5.5 mM glucose (Glc) and then evaluated for nuclear HIF-1a levels at various times by western blot analysis. (B) HIF-1a levels were measured after four hours incubation of cells in Krebs buffer containing the indicated glucose concentrations or with 5.5 mM 2-deoxyglucose (2-DG) substituted for glucose. (C) HIF-1a levels were measured in U87 cells cultured in glucose-free Krebs buffer following treatment for four hours under normoxia (21% oxygen) hypoxia (1% oxygen) or with 150 μm desferrioxamine (DFO). (D) Induction of HIF-1a by glucose was monitored in the presence of 50 μM IAA or 1 mM 4-CIN. […] Results are representative of experiments repeated at least three times.
Similar measurements were made in the presence of 50 μM IAA or in glucose-free Krebs buffer. […] HIF-1a induction by four hours treatment with 5.5 mM glucose-containing Krebs (Glc) is shown for comparison. (E) Digitonin-permeabilized cells were treated with 1% oxygen or Krebs containing either 5.5 mM glucose or 2 mM pyruvate in the presence of 50 μM IAA. Permeabilized cell in lanes 5 and 6 were treated with 3 mM NAD or NADH respectively in glucose free Krebs. Nuclear HIF-1a levels were determined four hours later. (F) HIF-1a levels were determined after four hour treatment of cells in glucose-free Krebs (lane 1) or 5.5 mM Glucose containing Krebs. […] (H) To measure the decay of the HIF-1a protein, HIF-1a measurements were made after four hour treatment under hypoxia (lane 1), four hours hypoxia followed by 30 minutes normoxia (lane 2), four hour treatment with 150 μM DFO (lane 3), four hours DFO followed by addition of 100 μM CHX for one hour (lane 4), four hours treatment with 2 mM pyruvate (lane 5), and four hours pyruvate followed by addition of 100 μM CHX for one hour (lane 6). (H) HIF-1a levels were determined in digitonin-permeabilized cells treated for four hour with Krebs containing no glucose (lane 1), 1 mM pyruvate (lane 2), or 1 mM pyruvate and 10 mM 2-OG (lane 3).
In order to resolve the biochemical mechanisms underlying this phenomenon, we studied the human glioma cell line U-87 under conditions of carefully defined culture media. Thus we studied these cells while culturing them in freshly prepared Krebs buffer, all components of which were known to us.
To precisely define the glucose metabolite mediating HIF-1a accumulation, we utilized pharmacological inhibitors of glycolysis as well as the direct addition of different glucose metabolites to cells (FIG. 4).

HRE containing promoter [2] = test: HRE-luciferase reporter in U251 cells; format: cell-based, human; details: six hours, glucose free Krebs, pyruvate, OAA, Ethylpyruvate 2 mM, Lactacystin-beta lactone 20 mM
Source text: as §1
FIG. 19: HIF-mediated gene expression is selectively reversed by ascorbate U251 cells stably expressing HRE-luciferase were cultured in glucose-free Krebs buffer with the indicated conditions for eight hours. Pyruvate, oxaloacetate, and DMOG were added at 1 mM each.
Effective gene expression by HIF not only involves HIF protein stabilization via inhibition of HPH enzymes but also HIF-1 binding to DNA, inhibition of FIH-1 activity, and gene transcription. The human gliomas that we utilized for most of our studies all express mRNA for FIH-1 (FIG. 18A). […] To directly assess activation of gene containing an HRE regulated promoter by the glucose metabolites pyruvate and oxaloacetate, we used U373 glioma cells transfected with an HRE-green fluorescent (HRE-GFP) construct that responds to HIF activation.

HIF-1a = HIF-1a induction in digitonin-permeabilized human glioma cells (U87, U251); format: cell-based; details: 1 mM doses
Procedure: We determined the ability of each shown structure to induce HIF by exposing digitonin-permeabilized human glioma cells (U87, U251) to 1 mM doses.
At four hours, ATP levels were measured in cell extracts using the luciferase method.
In order to investigate the mechanism of action of the 2-oxoacid HIF inducers that we identified we first determined their effects upon cellular ATP levels. […] As shown in the scheme in FIG. 1, cellular levels of HIF-1a can be elevated by blockade of proteasomal activity, ubiquitinylation, or prolyl hydroxylation. Inhibition of the proteasome by lactacystin beta-lactone (Lbl) leads to accumulation of HIF-1a in its polyubiquitinylated form which generally appears as a smear of higher molecular weight species on western blots. […] Cellular accumulation and nuclear translocation of HIF-1a can also be studied via immunohistochemistry. For this purpose we utilized U251 cells which are more adherent to cell culture dishes that the U87 cells.

[3] = test system: HPH homologues 1, 2 and 3; test: ^35S-pVHL pulldown assay, in vitro translated HPH homologues; format: biochemical, human; details: 2-OG analogs at 1 mM, 5 mM or 25 mM [2-OG], ascorbate at 2 mM
Procedure: After incubating the peptide with the HPHs and the indicated reagents, ^35S-pVHL was added followed by addition of streptavidin-coated beads to pull down the HIF-1a peptide. The reaction was pelleted, the pellet was washed and then solubilized for SDS-PAGE analysis followed by autoradiography to reveal the captured ^35S-pVHL. Using in vitro translated HPH homologues we first optimized assay conditions with respect to the required HPH substrates and co-factors. […] Conditions for other reagents were: ascorbate=2 mM, iron sulfate=250 μM, DTT=1 mM. […] Conditions: ascorbate=2 mM, 2-OG=2 mM, DTT=1 mM. […] Conditions: 2-OG=125 μM, iron sulfate=250 μM, DTT=1 mM. […] In all assays 5 μl (about 20 ng) of enzyme and 1 μg of peptide was utilized.
FIG. 13: In vitro effects of 2-OG analogs on recombinant HPH activity HPH activity was assessed via the ^35S-pVHL pulldown assay as in FIG. 11. Activity of in vitro translated HPH homologues was determined in the absence and presence of the 2-OG analogs N-oxalylglycine (NOG), pyruvate or OAA at 1 mM.
To directly evaluate the action of pyruvate and oxaloacetate on HPH activity (step D in FIG. 2) we utilized the commonly used ^35S-pVHL pulldown assay. This assay monitors the ability of HPH homologues to confer ^35S-pVHL binding activity onto a biotinylated 19mer peptide containing the key proline564 residue of the HIF-1a ODD (see FIG. 1). […]

| SMILES | HRE-GFP expression (HRE containing promoter [1]) | HIF-1a levels in glucose-free Krebs buffer (HIF-1a protein) | HRE-luciferase expression (HRE containing promoter [2]) | Ability to induce HIF (HIF-1a accumulation), structure-activity (HIF-1a) | Inhibition of 2-OG catalyzed HPH activity [3] |
| --- | --- | --- | --- | --- | --- |
| CC(=O)N(O)CCCCCNC(=O)CCC(=O)N(O)CCCCCNC(=O)CCC(=O)N(O)CCCCCN [DFO, desferrioxamine] | activated HRE-GFP expression; also recorded: GFP (green fluorescence) was expressed | still upregulate HIF-1a protein in the absence of glucose | enhanced HRE-luciferase expression |  |  |
| O=C(O)CNC(=O)C(=O)O [NOG, N-oxalylglycine] |  |  |  | consistently enhanced HIF-1a levels | inhibition by NOG is clearly evident |
